According to patent US20260069539A1, “LIPIDOID COMPOUNDS AND RELATED COMPOSITIONS AND USES” (Poseida Therapeutics, Inc., priority 2023, published 2026):

Experiments:
[1] = system: liver cells; assay: In vivo LNP delivery of DNA encoding firefly luciferase, bioluminescent imaging (BLI) at 48 hr; parameters: species or system BALB/C mice; conditions: for Total Flux: Example 103, 0.5 mg/kg DNA intravenous; for Total Flux / Mean Luciferase Flux (p/s): BLI at 48 hr; for Mean Luciferase Flux (p/s): adult BALB/C mice, 0.5 mg/kg DNA encoding firefly luciferase in LNP
Experimental: Adult BALB/C mice (n=3) were administered 0.5 mg/kg of DNA encoding firefly luciferase (Nature Technology Corp) formulated in a LNP composition listed in Table 4. One group of mice was treated with vehicle (PBS, Thermo Fisher Scientific, USA) as a negative control.
(§1) The location and extent of luciferase expression in treated and control mice were determined at 48 hr for DNA delivery by bioluminescent imaging (BLI) of anesthetized mice using an IVIS Lumina in vivo imaging system (Perkin Elmer) according to the manufacturer's instructions. Briefly, mice were anesthetized using isoflurane in oxygen, and placed supine on a heated stage. Mice were then administered D-luciferin (Perkin-Elmer #122799) IP, and BLI was performed.
as §1, with “DNA” for “DNA delivery”, “performed. […]” for “performed.”
Body weight loss (BWL) measurements were taken at 24 hrs post administration and luciferase expression was measured by whole body luminescence imaging (BLI) at 48 hours post-administration. […]
Luciferase expression was measured by whole body luminescence imaging (BLI) at 48 hours post-administration.

[2] = system: liver cells; assay: In vivo LNP delivery of fLuciferase mRNA, bioluminescent imaging (BLI) at 4 hr; parameters: species or system BALB/C mice; conditions: for Mean Luciferase Flux: 0.5 mg/kg fLuc mRNA i.v., 4 hr; for Total Flux: 0.5 mg/kg fLuciferase mRNA intravenous
Experimental: Adult female BALB/C mice (n=3/group) were intravenously administered 0.5 mg/kg of 5′-CleanCap—fLuciferase mRNA (TriLink Biotech) formulated with the LNP compositions shown in Table 6. One group of mice was treated with vehicle (PBS, Thermo Fisher Scientific, USA) as a negative control.
as §1, with “determined at 4 hr for mRNA and 48 hr” for “determined at 48 hr”, “for DNA by bioluminescent” for “for DNA delivery by bioluminescent”
as §1, with “4” for “48”, “hr” for “hr for DNA delivery”
as §1, with “4” for “48”, “hr” for “hr for DNA delivery”
The location and extent of luciferase expression in treated and control mice were determined at 4 hr by bioluminescent imaging (BLI) of anesthetized mice using an IVIS Lumina in vivo imaging system (Perkin Elmer) according to the manufacturer's instructions.
Briefly, mice were anesthetized using isoflurane in oxygen, and placed supine on a heated stage. Mice were then administered D-luciferin (Perkin-Elmer #122799) IP, and BLI was performed.
as §1, with “4” for “48”, “hr” for “hr for DNA delivery”

[3] = Body weight change / body weight loss 24 hours post-administration of LNP; type: in vivo, BALB/C mice; conditions: fLuc mRNA 0.5 mg/kg i.v.
Experimental: In addition, the body weight of mice treated with LNP compositions of the present disclosure prepared as described in Example 77 was assessed prior to intravenous administration and 24 hours post-administration and the body weights at baseline and post-treatment were compared.
In addition, the body weight of mice treated with LNP compositions of the present disclosure was assessed prior to intravenous administration and 24 hours post-administration and the body weights at baseline and post-treatment were compared.
Body weight loss (BWL) measurements were taken at 24 hrs post administration and luciferase expression was measured by whole body luminescence imaging (BLI) at 48 hours post-administration.
Blood was drawn from control and treated mice 4 hrs post-administration for cytokine analysis, body weight loss (BWL) measurements were taken at 24 hrs post administration and luciferase expression was measured by whole body luminescence imaging (BLI) at 48 hours post-administration.

[4] = LNP with 50 % moles of COMPOUND NO. 38 or 39 (DOPC 10/Chol 38.5/PEG-DMG 1.5, Lipid:RNA 80)
[5] = LNP with 40.75 % moles of the compound
[6] = LNP with 50 % moles of the compound
[7] = Table 15 experiment, LNP with 40.75 % moles of the compound (Lipid:RNA 80)
[8] = Table 15 experiment, LNP with 50 % moles of the compound (Lipid:RNA 80)
[9] = Example 104, experiment of Table 63, BLI at 4 hr
[10] = Table 13 experiment, LNP with 50 % moles of the compound (DOPC 10/Chol 38.5/PEG-DMG 1.5, Lipid:RNA 80)
[11] = LNP with 40.75 % moles of the compound (DOPC 5.0/Chol 51.75/PEG-DMG 2.5, Lipid:RNA 100)
[12] = LNP with 43.17 % moles of the compound (DOPC 11.96/Chol 43.17/PEG-DMG 1.7, Lipid:RNA 100)
[13] = LNP with 54.0 % moles of the compound (DOPC 10.0/Chol 35.0/PEG-DMG 1.0, Lipid:RNA 100)
[14] = Example 104, experiment of Table 64, BLI at 4 hr

CCCCC[C@H]1CC[C@H](C(=O)OCC(COC(=O)CCCCCN(CCCCCC(=O)OCC(COC(=O)[C@H]2CC[C@H](CCCCC)CC2)COC(=O)[C@H]2CC[C@H](CCCCC)CC2)[C@H]2CC[C@H](O)CC2)COC(=O)[C@H]2CC[C@H](CCCCC)CC2)CC1 [COMPOUND NO. 53]
Total Flux ([1]; LNP with 10% DOPC): 4.23E+07 p/s

CCCCC[C@H]1CC[C@H](C(=O)OCC(COC(=O)CCCCCN(CCCCCC(=O)COC(COC(=O)[C@H]2CC[C@H](CCCCC)CC2)COC(=O)[C@H]2CC[C@H](CCCCC)CC2)CCCCNC(C)=O)COC(=O)[C@H]2CC[C@H](CCCCC)CC2)CC1 [COMPOUND NO. 39]
Total Flux ([1]; LNP with 10% DOPC): 2.03E+06 p/s
Mean Luciferase Flux [2, 4]: 9.49E+10 p/s

CCCCCC(=O)OCC1CCC(COC(=O)C(CCCN(C)CCCC(C(=O)OCC2CCC(COC(=O)CCCCC)CC2)C(=O)OCC2CCC(COC(=O)CCCCC)CC2)C(=O)OCC2CCC(COC(=O)CCCCC)CC2)CC1 (stereo not shown) [COMPOUND NO. 41]
% body weight change [3, 5]: −1.8%
% body weight change [3, 6]: −2.6%
Mean Luciferase Flux [2, 7]: 3.79E+09 p/s
Mean Luciferase Flux [2, 8]: 5.26E+09 p/s

CCCCC[C@H]1CC[C@H](C(=O)OCC(COC(=O)CCCCCN(CCCCO)CCCCCC(=O)COC(COC(=O)[C@H]2CC[C@H](CCCCC)CC2)COC(=O)[C@H]2CC[C@H](CCCCC)CC2)COC(=O)[C@H]2CC[C@H](CCCCC)CC2)CC1 [COMPOUND NO. 38]
Total Flux ([1]; LNP with 10% DSPC): 8.29E+07 p/s
Mean Luciferase Flux [2, 4]: 1.17E+11 p/s

CCCCCC1CCC(C(=O)OCCOC(=O)CCN(CCCN(C)CCCN(CCC(=O)OCCOC(=O)[C@H]2CC[C@H](CCCCC)CC2)CCC(=O)OCCOC(=O)[C@H]2CC[C@H](CCCCC)CC2)CCC(=O)OCCOC(=O)C2CCC(CCCCC)CC2)CC1 (stereo partly shown) [COMPOUND NO. 3]
Mean Luciferase Flux (p/s) [1]: 2.12E+08 p/s

CCCCC[C@H]1CC[C@H](C(=O)OCC(COC(=O)CCCCCN(CCCCCC(=O)OCC(COC(=O)[C@H]2CC[C@H](CCCCC)CC2)COC(=O)[C@H]2CC[C@H](CCCCC)CC2)C[C@@H](C)O)COC(=O)[C@H]2CC[C@H](CCCCC)CC2)CC1 [COMPOUND NO. 57]
Total Flux [2, 9]: 9.69E+10 p/s

CCCCCCCCC(CCCCCCCC)OC(=O)[C@H]1CC[C@H](C(=O)OCCCCCN(CCCCO)CCCCCOC(=O)[C@H]2CC[C@H](C(=O)OC(CCCCCCCC)CCCCCCCC)CC2)CC1 [COMPOUND NO. 32]
Mean Luciferase Flux [2, 10]: 7.76E+09 p/s

CN(CCN(CCC(=O)OCCOC(=O)CCCCC1CCCCC1)CCC(=O)OCCOC(=O)CCCCC1CCCCC1)CCN(CCC(=O)OCCOC(=O)CCCCC1CCCCC1)CCC(=O)OCCOC(=O)CCCCC1CCCCC1 [COMPOUND NO. 6]
Mean Luciferase Flux [2, 11]: 1.78E+11 p/s
Mean Luciferase Flux [2, 12]: 3.23E+10 p/s
Mean Luciferase Flux [2, 13]: 4.58E+10 p/s

CCCCCCCCCCCC(=O)OCC(COC(=O)CCCCCCCCCCC)COC(=O)CCCCCN(CCO)CCCCCC(=O)OCC(COC(=O)CCCCCCCCCCC)COC(=O)CCCCCCCCCCC [compound 100, reference compound]
DNA delivery potency ([1]; 0.5 mg/kg DNA, BLI 48 hr, compared to LNPs comprising COMPOUND NOS. 36, 37, or 38): greatly reduced
Total Flux ([1]; LNP comprising compound 100, composition not stated): 1.97E+07 p/s
RNA delivery potency ([2]; 0.5 mg/kg fLuciferase mRNA in LNP, BLI at 4 hr): RNA delivery potency increases with increasing number of cyclohexyl-substituted tails
Total Flux [2, 14]: 3.24E+10 p/s

CCCCCC1CCC(C(=O)OCCOC(=O)CCN(CCCN(C)CCN(CCC(=O)OCCOC(=O)[C@H]2CC[C@H](CCCCC)CC2)CCC(=O)OCCOC(=O)[C@H]2CC[C@H](CCCCC)CC2)CCC(=O)OCCOC(=O)C2CCC(CCCCC)CC2)CC1 (stereo partly shown) [COMPOUND NO. 4]
Mean Luciferase Flux (p/s) [1]: 1.36E+09 p/s

CC(C)CCCC1CCC(COC(=O)CCN(CCCN(C)CCCN(CCC(=O)OCC2CCC(CCCC(C)C)CC2)CCC(=O)OCC2CCC(CCCC(C)C)CC2)CCC(=O)OCC2CCC(CCCC(C)C)CC2)CC1 (stereo not shown) [COMPOUND NO. 1]
Mean Luciferase Flux [2, 11]: 8.79E+09 p/s
Mean Luciferase Flux [2, 12]: 1.01E+10 p/s
Mean Luciferase Flux [2, 13]: 6.15E+08 p/s

CCCCCCCCC(CCCCCCCC)OC(=O)C1CCC(C(=O)OCCCCCN(CCO)CCCCCCCOC(=O)C2CCC(CCCCC)CC2)CC1 (stereo not shown) [COMPOUND NO. 34]
Mean Luciferase Flux [2, 10]: 1.87E+10 p/s

CCCCC[C@H]1CC[C@H](C(=O)OCC(COC(=O)CCCCCN(CCCCCC(=O)OCC(COC(=O)[C@H]2CC[C@H](CCCCC)CC2)COC(=O)[C@H]2CC[C@H](CCCCC)CC2)Cc2ccccc2)COC(=O)[C@H]2CC[C@H](CCCCC)CC2)CC1 [COMPOUND NO. 63]
Total Flux [2, 14]: 3.48E+05 p/s

CCCCCCCCC(CCCCCC)C(=O)O[C@H]1CC[C@H](OC(=O)CCCCCN(CCCO)CCCCCC(=O)O[C@H]2CC[C@H](OC(=O)C(CCCCCC)CCCCCCCC)CC2)CC1 (stereo partly shown) [COMPOUND NO. 28]
Mean Luciferase Flux [2, 10]: 3.28E+10 p/s

CC(C)CCCC1CCC(COC(=O)C(CCCN(C)CCCC(C(=O)OCC2CCC(CCCC(C)C)CC2)C(=O)OCC2CCC(CCCC(C)C)CC2)C(=O)OCC2CCC(CCCC(C)C)CC2)CC1 (stereo not shown) [COMPOUND NO. 43]
Mean Luciferase Flux ([2]; Table 14 experiment, LNP with 40.75 % moles of the compound (Lipid:RNA 40)): 1.12E+09 p/s
Mean Luciferase Flux ([2]; Table 14 experiment, LNP with 50 % moles of the compound (Lipid:RNA 80)): 1.10E+09 p/s

CC(C)CCCC1CCC(COC(=O)C(CCCN(CCO)CCCC(C(=O)OCC2CCC(CCCC(C)C)CC2)C(=O)OCC2CCC(CCCC(C)C)CC2)C(=O)OCC2CCC(CCCC(C)C)CC2)CC1 (stereo not shown) [COMPOUND NO. 42]
% body weight change [3, 5]: −2.3%
% body weight change [3, 6]: −4.0%
Mean Luciferase Flux [2, 7]: 1.23E+09 p/s
Mean Luciferase Flux [2, 8]: 8.27E+09 p/s

CCCCC[C@H]1CC[C@H](C(=O)OCC(COC(=O)CCCCN(CCCO)CCCCC(=O)OCC(COC(=O)[C@H]2CC[C@H](CCCCC)CC2)COC(=O)[C@H]2CC[C@H](CCCCC)CC2)COC(=O)[C@H]2CC[C@H](CCCCC)CC2)CC1 [COMPOUND NO. 72]
Total Flux ([2]; Example 104, experiment of Table 65, BLI at 4 hr): 2.40E+11 p/s

CCCCCC(=O)OCC1CCC(COC(=O)C(CCCN(CCCO)CCCC(C(=O)OCC2CCC(COC(=O)CCCCC)CC2)C(=O)OCC2CCC(COC(=O)CCCCC)CC2)C(=O)OCC2CCC(COC(=O)CCCCC)CC2)CC1 (stereo not shown) [COMPOUND NO. 49]
Total Flux [2, 9]: 2.00E+11 p/s
